What was measured:
wild mustard = experiment: Test D postemergence; type: in vivo, Sinapis arvensis; settings: Brassica, post-emergence, scale 0 to 100 (0 no effect, 100 complete control), read-out: Plant response rating, Mustard, Wild
Procedure, shortened: (§1)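 Values are 0–100 visual control ratings (0 none, 100 complete) given 7–21 days after application. Soil for preemergence was silt loam; postemergence plants stood 2–18 cm tall.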

field bindweed = experiment: Test E postemergence; type: in vivo, Convolvulus arvensis; settings: Convolvulus arvensis, post-emergence, read-out: Plant response rating, Field Bindweed; for pest or weed control at 31 g/ha / pest or weed control at 62 g/ha / pest or weed control at 125 g/ha / pest or weed control at 250 g/ha: Postemergence, scale 0 to 100; for pest or weed control at 31 g/ha: 31 g ai/ha; for pest or weed control at 62 g/ha: 62 g ai/ha; for pest or weed control at 125 g/ha: 125 g ai/ha; for pest or weed control at 250 g/ha: 250 g ai/ha; for pest or weed control at 16 g/ha: postemergence, 16 g ai/ha, scale 0 to 100, 0 no effect, 100 complete control
Source text: Seeds of plant species selected from corn (Zea mays), soybean (Glycine max), velvetleaf (Abutilon theophrasti), lambsquarters (Chenopodium album), wild poinsettia (Euphorbia heterophylla), palmer pigweed (Amaranthus palmeri), waterhemp (common waterhemp, Amaranthus rudis), surinam grass (Brachiaria decumbens), large (Lg) crabgrass (Digitaria sanguinalis), Brazilian crabgrass (Digitaria horizontalis), fall panicum (Panicum dichotomiflorum), giant foxtail (Setaria faberii), green foxtail (Setaria viridis), goosegrass (Eleusine indica), johnsongrass (Sorghum halepense), ragweed (common ragweed, Ambrosia elatior), barnyardgrass (Echinochloa crus-galli), sandbur (southern sandbur, Cenchrus echinatus), arrowleaf sida (Sida rhombifolia), Italian ryegrass (Lolium multiflorum), dayflower (Virginia (VA) dayflower, Commelina virginica), field bindweed (Convolvulus arvensis), morningglory (Ipomoea coccinea), nightshade (eastern black nightshade, Solanum ptycanthum), kochia (Kochia scoparia), yellow nutsedge (Cyperus esculentus), cocklebur (common cocklebur, Xanthium strumarium), smartweed (ladysthumb smartweed, and hairy beggarticks (Bidens pilosa), were planted into a silt loam soil and treated preemergence with test chemicals formulated in a non-phytotoxic solvent mixture which included a surfactant.
At the same time, plants from these crop and weed species and also horseweed (Canada horseweed, Conyza canadensis), waterhemp_RES1, (ALS & Triazine resistant common waterhemp, Amaranthus rudis), and waterhemp_RES2, (ALS & HPPD resistant common waterhemp, Amaranthus rudis) were planted in pots containing Redi-Earth® planting medium (Scotts Company, 14111 Scottslawn Road, Marysville, Ohio 43041) comprising spaghnum peat moss, vermiculite, wetting agent and starter nutrients were treated with postemergence applications of test chemicals formulated in the same manner. Plants ranged in height from 2 to 18 cm for postemergence treatments (1- to 4-leaf stage). Treated plants and controls were maintained in a greenhouse for 14 to 21 days, after which time all species were compared to controls and visually evaluated. Plant response ratings, summarized in Table E, are based on a scale of 0 to 100 where 0 is no effect and 100 is complete control. A dash (-) response means no test result.

bluegrass [1] = experiment: Test D preemergence; type: in vivo, Poa annua; settings: Poa annua, pre-emergence, scale 0-100, read-out: Plant response rating, Bluegrass
Procedure, shortened: as §1

wild buckwheat [2] = experiment: Test D postemergence; type: in vivo, Polygonum convolvulus; settings: Fallopia convolvulus, post-emergence, Postemergence, scale 0 to 100 (0 no effect, 100 complete control), read-out: Plant response rating, Buckwheat, Wild
Procedure, shortened: as §1

pigweed = experiment: Test D postemergence; type: in vivo, Amaranthus retroflexus; settings: Amaranthus retroflexus, post-emergence, scale 0 to 100 (0 no effect, 100 complete control), read-out: Plant response rating, Pigweed
Procedure, shortened: as §1

chamomile = experiment: Test D preemergence; type: in vivo, Matricaria inodora; settings: Tripleurospermum inodorum, pre-emergence, scale 0-100, read-out: Plant response rating, Chamomile
Procedure, shortened: as §1

bromegrass, downy = experiment: Test D postemergence; type: in vivo, Bromus tectorum; settings: Bromus tectorum, post-emergence, Postemergence, scale 0 to 100 (0 no effect, 100 complete control), read-out: Plant response rating, Bromegrass, Downy
Procedure, shortened: as §1

bluegrass [3] = experiment: Test D postemergence; type: in vivo, Poa annua; settings: Poa annua, post-emergence, Postemergence, scale 0 to 100 (0 no effect, 100 complete control), read-out: Plant response rating, Bluegrass
Procedure, shortened: as §1

Italian ryegrass = experiment: Test D postemergence; type: in vivo, Lolium multiflorum; settings: Lolium multiflorum, post-emergence, scale 0 to 100 (0 no effect, 100 complete control), read-out: Plant response rating, Ryegrass, Italian
Procedure, shortened: as §1

oilseed rape = experiment: Test D preemergence; type: in vivo, Brassica napus; settings: Brassica napus, pre-emergence, scale 0-100, read-out: Plant response rating, Oilseed Rape
Procedure, shortened: as §1

wild buckwheat [4] = experiment: Test D preemergence; type: in vivo, Polygonum convolvulus; settings: Fallopia convolvulus, pre-emergence, scale 0-100, read-out: Plant response rating, Buckwheat, Wild
Procedure, shortened: as §1

deadnettle = experiment: Test D postemergence; type: in vivo, Lamium amplexicaule; settings: Lamium amplexicaule, post-emergence, scale 0 to 100 (0 no effect, 100 complete control), read-out: Plant response rating, Deadnettle
Procedure, shortened: as §1

speedwell = experiment: Test D preemergence; type: in vivo, Veronica persica; settings: Veronica persica, pre-emergence
Procedure, shortened: as §1

In the case of N#Cc1cccc(Oc2ncc(Br)cn2)c1-n1cc(C(F)(F)F)cn1 [Compound 59, 3-[(5-bromo-2-pyrimidinyl)oxy]-2-[4-(trifluoromethyl)-1H-pyrazol-1-yl]benzonitrile], the pest or weed control at 31 g/ha (wild mustard; 31 g ai/ha) is reported as 100%, the pest or weed control at 62 g/ha (wild mustard; 62 g ai/ha) is reported as 95% and the pest or weed control at 125 g/ha (wild mustard; 125 g ai/ha) is reported as 100%. For the same compound, the pest or weed control at 250 g/ha (wild mustard; 250 g ai/ha) was 100%, the pest or weed control at 31 g/ha (field bindweed) was 60% and the pest or weed control at 62 g/ha (field bindweed) was 65%. The pest or weed control at 125 g/ha (field bindweed) was 70%, the pest or weed control at 250 g/ha (field bindweed) was 80% and the pest or weed control at 16 g/ha (field bindweed) was 50%. For the same compound, the pest or weed control at 31 g/ha (bluegrass [1]; 31 g ai/ha) was 5%, the pest or weed control at 62 g/ha (bluegrass [1]; 62 g ai/ha) was 10% and the pest or weed control at 125 g/ha (bluegrass [1]; 125 g ai/ha) was 35%. The pest or weed control at 250 g/ha (bluegrass [1]; 250 g ai/ha) was 85%, the pest or weed control at 31 g/ha (wild buckwheat [2]; 31 g ai/ha) was 80% and the pest or weed control at 62 g/ha (wild buckwheat [2]; 62 g ai/ha) was 100%. For the same compound, the pest or weed control at 125 g/ha (wild buckwheat [2]; 125 g ai/ha) was 100%, the pest or weed control at 250 g/ha (wild buckwheat [2]; 250 g ai/ha) was 100% and the pest or weed control at 31 g/ha (pigweed; 31 g ai/ha) was 100%. For the same compound, the pest or weed control at 62 g/ha (pigweed; 62 g ai/ha) was 100%, the pest or weed control at 125 g/ha (pigweed; 125 g ai/ha) was 95% and the pest or weed control at 250 g/ha (pigweed; 250 g ai/ha) was 95%. For the same compound, the pest or weed control at 31 g/ha (chamomile; 31 g ai/ha) was 10%, the pest or weed control at 62 g/ha (chamomile; 62 g ai/ha) was 15% and the pest or weed control at 125 g/ha (chamomile; 125 g ai/ha) was 95%. It also gave a pest or weed control at 250 g/ha (chamomile; 250 g ai/ha) of 85%, a pest or weed control at 31 g/ha (bromegrass, downy; 31 g ai/ha) of 20% and a pest or weed control at 62 g/ha (bromegrass, downy; 62 g ai/ha) of 20%. For the same compound, the pest or weed control at 125 g/ha (bromegrass, downy; 125 g ai/ha) was 25%, the pest or weed control at 250 g/ha (bromegrass, downy; 250 g ai/ha) was 30% and the pest or weed control at 31 g/ha (bluegrass [3]; 31 g ai/ha) was 15%. The pest or weed control at 62 g/ha (bluegrass [3]; 62 g ai/ha) was 15%, the pest or weed control at 125 g/ha (bluegrass [3]; 125 g ai/ha) was 20% and the pest or weed control at 250 g/ha (bluegrass [3]; 250 g ai/ha) was 40%. For the same compound, the pest or weed control at 31 g/ha (Italian ryegrass; 31 g ai/ha) was 10%, the pest or weed control at 62 g/ha (Italian ryegrass; 62 g ai/ha) was 10% and the pest or weed control at 125 g/ha (Italian ryegrass; 125 g ai/ha) was 40%. For the same compound, the pest or weed control at 250 g/ha (Italian ryegrass; 250 g ai/ha) was 50%, the plant injury at 31 g/ha (oilseed rape; 31 g ai/ha) was 65% and the plant injury at 62 g/ha (oilseed rape; 62 g ai/ha) was 60%. The plant injury at 125 g/ha (oilseed rape; 125 g ai/ha) was 100%, the plant injury at 250 g/ha (oilseed rape; 250 g ai/ha) was 100% and the pest or weed control at 31 g/ha (wild buckwheat [4]; 31 g ai/ha) was 60%. The pest or weed control at 62 g/ha (wild buckwheat [4]; 62 g ai/ha) was 100%, the pest or weed control at 125 g/ha (wild buckwheat [4]; 125 g ai/ha) was 100% and the pest or weed control at 250 g/ha (wild buckwheat [4]; 250 g ai/ha) was 100%. It also gave a pest or weed control at 31 g/ha (deadnettle; 31 g ai/ha) of 70%, a pest or weed control at 62 g/ha (deadnettle; 62 g ai/ha) of 75% and a pest or weed control at 125 g/ha (deadnettle; 125 g ai/ha) of 100%. It also gave a pest or weed control at 250 g/ha (deadnettle; 250 g ai/ha) of 100%, a pest or weed control at 31 g/ha (speedwell; 31 g ai/ha, scale 0 (no effect) to 100 (complete control), read-out: Plant response rating, Speedwell) of 15% and a pest or weed control at 62 g/ha (speedwell; 62 g ai/ha, scale 0-100, read-out: Plant response rating, Speedwell) of 100%. The pest or weed control at 125 g/ha (speedwell; 125 g ai/ha, scale 0-100, read-out: Plant response rating, Speedwell) was 100% and the pest or weed control at 250 g/ha (speedwell; 250 g ai/ha, scale 0-100, read-out: Plant response rating, Speedwell) was 100%.

Work on Fc1cnc(Oc2ccccc2-n2cc(Br)cn2)nc1 [Compound 10, 2-[2-(4-bromo-1H-pyrazol-1-yl)phenoxy]-5-fluoropyrimidine] yielded a pest or weed control at 31 g/ha (field bindweed) of 30%, a pest or weed control at 62 g/ha (field bindweed) of 30% and a pest or weed control at 125 g/ha (field bindweed) of 40%. It also gave a pest or weed control at 250 g/ha (field bindweed) of 50% and a pest or weed control at 16 g/ha (field bindweed) of 15%.

Source: patent US9695155B2, “Herbicidal substituted pyrimidinyloxy benzene compounds” (E. I. DU PONT DE NEMOURS AND COMPANY, priority 2013, dated 2017)
